In patent US20240285614A1, “PHENOL RIBONUCLEOTIDE REDUCTASE (RNR) INHIBITORS AND USES THEREOF” (Boundless Bio, Inc., priority 2023, published 2024):

How the values were obtained:
RNR (RNR1:RNR2 1:1) = biological target: T1, RNR (RNR1:RNR2 1:1) (Homo sapiens, UniProt P23921+P31350); assay: RNR enzyme activity, rapid-fire mass spectrometry (RF/MS) assay; type: biochemical; details: RNR 50 nM, 1:1 (RNR1:RNR2); CDP 5 μM; ATP 1 mM; 37° C., 45 min; compounds screened up to 50 μM
T1 sequence (P23921 1-792): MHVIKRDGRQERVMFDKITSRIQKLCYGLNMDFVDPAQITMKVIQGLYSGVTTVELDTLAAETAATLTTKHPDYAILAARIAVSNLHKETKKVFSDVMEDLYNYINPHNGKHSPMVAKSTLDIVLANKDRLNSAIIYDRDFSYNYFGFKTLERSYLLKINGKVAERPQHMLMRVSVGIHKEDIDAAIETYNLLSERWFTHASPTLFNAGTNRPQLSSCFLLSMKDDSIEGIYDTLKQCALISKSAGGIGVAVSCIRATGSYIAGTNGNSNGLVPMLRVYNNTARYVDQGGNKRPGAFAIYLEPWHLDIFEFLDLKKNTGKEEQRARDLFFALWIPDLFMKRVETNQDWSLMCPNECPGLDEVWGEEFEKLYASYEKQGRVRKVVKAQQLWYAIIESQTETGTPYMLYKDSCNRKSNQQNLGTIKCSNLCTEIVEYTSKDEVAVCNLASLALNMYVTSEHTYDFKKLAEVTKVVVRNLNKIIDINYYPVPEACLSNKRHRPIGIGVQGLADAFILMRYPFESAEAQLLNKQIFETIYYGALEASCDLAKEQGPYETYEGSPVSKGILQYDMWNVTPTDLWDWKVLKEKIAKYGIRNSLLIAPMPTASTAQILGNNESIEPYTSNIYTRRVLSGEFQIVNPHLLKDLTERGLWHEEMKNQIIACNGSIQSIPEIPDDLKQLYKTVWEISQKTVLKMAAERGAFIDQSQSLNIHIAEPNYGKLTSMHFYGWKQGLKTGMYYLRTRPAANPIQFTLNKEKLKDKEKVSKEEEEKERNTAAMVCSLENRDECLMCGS
T1 sequence (P31350 1-389): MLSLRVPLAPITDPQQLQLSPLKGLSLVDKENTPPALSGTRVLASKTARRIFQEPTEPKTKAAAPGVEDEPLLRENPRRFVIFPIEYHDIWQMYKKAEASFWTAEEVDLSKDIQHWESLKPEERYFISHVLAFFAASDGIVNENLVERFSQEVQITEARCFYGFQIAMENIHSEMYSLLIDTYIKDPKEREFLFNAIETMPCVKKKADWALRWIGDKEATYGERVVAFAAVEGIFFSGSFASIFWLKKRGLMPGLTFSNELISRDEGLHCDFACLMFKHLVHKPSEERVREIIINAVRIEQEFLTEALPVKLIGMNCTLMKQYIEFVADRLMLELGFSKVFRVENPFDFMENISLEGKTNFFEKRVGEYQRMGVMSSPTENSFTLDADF
Protocol: A rapid-fire mass spectrometry (RF/MS) assay was used to assess RNR enzyme activity using a 384 well plate and a robotic platform.
The plate layout included two validated reference compounds (Triapine (3-AP) and Hydroxyurea (HU)): • A dose response in duplicate, top concentration: 5 μM (3-AP) and 250 μM (HU), semi-log • dilutions. • Spike wells in triplicate randomly spotted at four concentrations: • 250 μM, 100 μM, 30 μM and 2 μM for HU • 5 μM, 2 μM, 0.6 μM and 0.04 μM for 3-AP
First, the multidrop pipes were saturated for 30 minutes with enzymatic solution. Then 30 μL of Stop solution was distributed in column 24. Next, 15 μL of enzyme was distributed in column 1 to 24. Next, a pre-incubation step of 15 minutes at room temperature occurred, followed by distribution of 15 μL of substrate solution (column 1 to 24). Next, the plate was incubated for 45 minutes at 37° C. 30 μL of Stop solution was distributed to columns 1 to 23.
The final parameters for the enzyme reactions were: • Incubation: 37° C., 45 min • [CDP]: 5 μM: [ATP]: 1 mM; [NADPH]: No • [RNR]final: 50 nM with 1:1 (RNR1:RNR2) ratio • Final volume: 30 μL • Stop solution: 6% HCOOH containing 2 μM of 15

[1] = tested on: pCHK1 (S345) in Colo320 DM cells; assay: Alphalisa assay, detection of pCHK1 (S345) in Colo320 DM cells; type: cell-based; details: Homo sapiens, COLO 320DM, compound incubation overnight (approximately 16 hours)
Protocol: Colo320 DM cells (ATCC #CCL-220, derived from human colorectal adenocarcinoma, Dukes' type C) were seeded on a 96-well, cell culture treated assay plate at a density of 50,000 cells/well in 200 μL of RPMI-1640 media supplemented with 10% Fetal Bovine Serum and incubated at 37° C. overnight. The following day, test compound dilutions were added directly to the plated cells by a Tecan digital dispenser to a final DMSO concentration of <0.5%, and incubated at 37° C. overnight (approximately 16 hours). The following day all cull culture media was removed from the cells. 75 μL of 1× AlphaLisa lysis buffer was added to each well and plates were agitated on a shaker for 30 minutes at room temperature. The lysis of cells and detection of pCHK1 (S345) were performed with regents contained within the AlphaLisa Sure Fire assay kit (Perkin Elmer #ALSU-PCHK1-A) according to the manufacturer's instructions. 10 μL of each lysate was then transferred to a white, 384-well assay plate (Perkin Elmer #6008280), 5 μL of Acceptor mix was then added to each well of lysate in the white, 384-well assay plate and incubated in the dark at room temperature for 60 minutes. 5 μL of Donor mix was then added to each well of the white, 384-well assay plate in subdued light and incubated at room temperature for 60 minutes. Plates were read on an Alpha Technology-compatible plate reader using standard AlphaLisa settings.

| SMILES | IC50 (RNR (RNR1:RNR2 1:1)) [µM] | IC50 [1] [µM] |
| --- | --- | --- |
| CCN(c1ccc(O)cc1)C1CN(S(=O)(=O)c2ccc3cc[nH]c3c2)C1 [compound 25, 4-((1-((1H-indol-6-yl)sulfonyl)azetidin-3-yl)(ethyl)amino)phenol] | ≤ 0.05 | ≤ 1 |
| CN(C1CN(c2ccc(O)cc2)C1)S(=O)(=O)c1ccc2cc[nH]c2c1 [compound 16, N-(1-(4-hydroxyphenyl)azetidin-3-yl)-N-methyl-1H-indole-6-sulfonamide] | 0.1 to 0.5 | 1 to 5 |
| CN(c1ccc(O)cc1)C1CN(S(=O)(=O)c2cc3[nH]cc(Cl)c3cc2F)C1 [compound 22, 4-((1-((3-chloro-5-fluoro-1H-indol-6-yl)sulfonyl)azetidin-3-yl)(methyl)amino)phenol] | ≤ 0.05 | 1 to 5 |
| O=S(=O)(c1ccc2cc[nH]c2c1)N1CC(N(c2ccc(O)cc2)C2CC2)C1 [compound 19, 4-((1-((1H-indol-6-yl)sulfonyl)azetidin-3-yl)(cyclopropyl)amino)phenol] | ≤ 0.05 | 1 to 5 |
| O=S(=O)(c1ccc2cc[nH]c2c1)N1C[C@H]2CCC[C@@H](C1)N2c1ccc(O)cc1 [compound 28, 4-((1R,5S)-3-((1H-indol-6-yl)sulfonyl)-3,9-diazabicyclo[3.3.1]nonan-9-yl)phenol] | ≤ 0.05 | 1 to 5 |
| CN(c1ccc(O)cc1)C1CN(S(=O)(=O)c2ccc3[nH]ccc3c2)C1 [compound 27, 4-((1-((1H-indol-5-yl)sulfonyl)azetidin-3-yl)(methyl)amino)phenol] | ≤ 0.05 | ≤ 1 |
| Cn1ccc2cccc(S(=O)(=O)N3CCN(c4ccc(O)cc4)CC3)c21 [compound 1, 4-(4-((1-methyl-1H-indol-7-yl)sulfonyl)piperazin-1-yl)phenol] | ≤ 0.05 | 5 to 10 |
| CN(c1ccc(O)cc1)C1CCN(S(=O)(=O)c2ccc3[nH]ccc3c2)C1 (racemic) [compound 30, rac-(R)-4-((1-((1H-indol-5-yl)sulfonyl)pyrrolidin-3-yl)(methyl)amino)phenol] | ≤ 0.05 | ≤ 1 |
| CN(c1ccc(O)cc1)C1CCN(S(=O)(=O)c2cccc3[nH]ccc23)C1 (racemic) [compound 31, rac-(R)-4-((1-((1H-indol-4-yl)sulfonyl)pyrrolidin-3-yl)(methyl)amino)phenol] | ≤ 0.05 | 1 to 5 |
| O=S(=O)(c1ccc2cc[nH]c2c1)N1[C@@H]2CCC[C@H]1CN(c1ccc(O)cc1)C2 [compound 34, 4-((1R,5S)-9-((1H-indol-6-yl)sulfonyl)-3,9-diazabicyclo[3.3.1]nonan-3-yl)phenol] | ≤ 0.05 | 1 to 5 |
| C[C@@H]1CN(c2ccc(O)cc2)CCN1S(=O)(=O)c1ccc2cc[nH]c2c1 [compound 21, (R)-4-(4-((1H-indol-6-yl)sulfonyl)-3-methylpiperazin-1-yl)phenol] | ≤ 0.05 | 1 to 5 |
| CN(C1CCN(c2ccc(O)cc2)CC1)S(=O)(=O)c1ccc2cc[nH]c2c1 [compound 12, N-(1-(4-hydroxyphenyl)piperidin-4-yl)-N-methyl-1H-indole-6-sulfonamide] | ≤ 0.05 | 5 to 10 |
| CN(c1ccc(O)cc1)C1CN(S(=O)(=O)c2ccc3cc[nH]c3c2)C1 [compound 13, 4-((1-((1H-indol-6-yl)sulfonyl)azetidin-3-yl)(methyl)amino)phenol] | ≤ 0.05 | ≤ 1 |
| O=S(=O)(c1cccc2[nH]ccc12)N1CCN(c2ccc(O)cc2)CC1 [compound 7, 4-(4-((1H-indol-4-yl)sulfonyl)piperazin-1-yl)phenol] | 0.05 to 0.1 | 1 to 5 |
| O=S(=O)(c1cccc2cc[nH]c12)N1CCN(c2ccc(O)cc2)CC1 [compound 5, 4-(4-((1H-indol-7-yl)sulfonyl)piperazin-1-yl)phenol] | 0.1 to 0.5 | 1 to 5 |
| O=S(=O)(c1ccc2cc[nH]c2c1)N1C[C@H]2CC[C@@H](C1)N2c1ccc(O)cc1 [compound 26, 4-((1R,5S)-3-((1H-indol-6-yl)sulfonyl)-3,8-diazabicyclo[3.2.1]octan-8-yl)phenol] | 0.1 to 0.5 | 5 to 10 |
| CN(CC1CN(S(=O)(=O)c2ccc3cc[nH]c3c2)C1)c1ccc(O)cc1 [compound 29, 4-(((1-((1H-indol-6-yl)sulfonyl)azetidin-3-yl)methyl)(methyl)amino) phenol] | ≤ 0.05 | 5 to 10 |

Further lines, results first:

| IC50 (RNR (RNR1:RNR2 1:1)) [µM] | IC50 [1] [µM] | SMILES |
| --- | --- | --- |
| 0.1 to 0.5 | 5 to 10 | O=S(=O)(c1ccc2cc[nH]c2c1)N1CC2CN(c3ccc(O)cc3)CCC21 (centres unmarked) [compound 51, 4-(7-((1H-indol-6-yl)sulfonyl)-3,7-diazabicyclo[4.2.0]octan-3-yl)phenol] |
| ≤ 0.05 | 1 to 5 | O=S(=O)(c1ccc2cc[nH]c2c1)N1CCC(Oc2ccc(O)cc2)CC1 [compound 43, 4-((1-((1H-indol-6-yl)sulfonyl)piperidin-4-yl)oxy)phenol] |
| ≤ 0.05 | 1 to 5 | C[C@@H]1C[C@H](N(C)c2ccc(O)cc2)CN1S(=O)(=O)c1ccc2cc[nH]c2c1 (racemic) [compound 37, rac-4-(((3R,5S)-1-((1H-indol-6-yl)sulfonyl)-5-methylpyrrolidin-3-yl)(methyl)amino)phenol] |
| ≤ 0.05 | ≤ 1 | O=S(=O)(c1ccc2cc[nH]c2c1)N1CCC(Oc2ccc(O)cc2)C1 (centres unmarked) [compound 40, 4-((1-((1H-indol-6-yl)sulfonyl)pyrrolidin-3-yl)oxy)phenol] |
| 0.1 to 0.5 | 10 to 50 | O=S(=O)(c1ccc2cc[nH]c2c1)N1CC2CC1CN2c1ccc(O)cc1 (centres unmarked) [compound 35, 4-(5-((1H-indol-6-yl)sulfonyl)-2,5-diazabicyclo[2.2.1]heptan-2-yl)phenol] |
| 0.1 to 0.5 | 10 to 50 | O=S(=O)(c1cc2ccccc2[nH]1)N1CCC2(CCN(c3ccc(O)cc3)CC2)C1 [compound 47, 4-(2-((1H-indol-2-yl)sulfonyl)-2,8-diazaspiro[4.5]decan-8-yl)phenol] |
| 0.05 to 0.1 | 5 to 10 | CN(CC1CCN1S(=O)(=O)c1ccc2cc[nH]c2c1)c1ccc(O)cc1 (centres unmarked) [compound 45, 4-(((1-((1H-indol-6-yl)sulfonyl)azetidin-2-yl)methyl)(methyl)amino) phenol] |
| 0.1 to 0.5 | 1 to 5 | C[C@@H]1[C@H](Nc2ccc(O)cc2)CN1S(=O)(=O)c1ccc2cc[nH]c2c1 (racemic) [compound 36, rac-4-(((2R,3R)-1-((1H-indol-6-yl)sulfonyl)-2-methylazetidin-3-yl)amino)phenol] |
